Legend:
[1] = test system: collagen induced arthritis (CIA); details: literature (Chiba et al., Arthritis Rheum. 2004); cited from earlier work
[2] = test system: experimental autoimmune encephalomyelitis (EAE); details: literature (Miyamoto et al., Nature 2001); cited from earlier work
NKT cells = assay: Effect of the compound on NKT cells (liver mononuclear cells incubated with compound); format: cell-based, C57BL/6J mice; details: 48 hours incubation, FIG. 4
Protocol: Mononuclear cells were isolated from the liver of C57BL/6J mice (8 weeks old, female) and are incubated with the compound for 48 hours.

For `CCCCCCCCCCCCCCCCCCCCCCCC(=O)N[C@@H](COC1OC(CO)C(O)C(O)C1O)[C@H](O)[C@H](O)CCCCC` (some centres unmarked) [OCH], the “suppression of diseases in CIA” value [1] is listed as “high effectiveness” and the “suppression of diseases in EAE” value [2] is listed as “high effectiveness”.
In the case of `CCCCCCCCCCCCCCCCCCCCCCCCCC(=O)N[C@@H](COC1OC(CO)C(O)C(O)C1O)[C@H](O)[C@H](O)CCCCCCCCCCCCCC` (stereo partly drawn) [α-GC, α-galactosyl ceramide], the “IFN-γ production (ELISA, supernatant)” value (NKT cells) is reported as “induced”, the “IL-4 production (ELISA, supernatant)” value (NKT cells) is reported as “induced” and the “cell proliferation (uptake of tritium thymidine)” value (NKT cells) is reported as “induced”.

Source: patent US20090048185A1, “Therapeutic Drug for Suppressing Functions of NKT Cells Containing Glycolipid Derivative as Active Ingredient” (priority 2005, published 2009)
